Test results from patent US9127015B2, “Tricyclopyrazole derivatives” (NERVIANO MEDICAL SCIENCES S.R.L., priority 2009, dated 2015).
“And” between values parts separate entries of the source, which are not always exact repeats. Equal values may be shown once.

Tests used:
Assay in all cases: Kinase inhibition assay, IC50 (Table A)
Assay type in all cases: biochemical
KIT = KIT (Homo sapiens, UniProt P10721); conditions: Enzyme KIT
Experimental: (§1) The inhibiting activity of putative kinase inhibitors and the potency of selected compounds is determined through a method of assay based on the use of the Kinase-Glo® Luminescent Kinase Assay (commercially available from Promega corporation and described in Koresawa, M. and Okabe, T. (2004) High-throughput screening with quantitation of ATP consumption: A universal non-radioisotope, homogeneous assay for protein kinase. Assay Drug Dev. Technol. 2, 153-60).
(§2) The inhibitory activity of putative kinase inhibitors and the potency of selected compounds were also determined using a trans-phosphorylation assay.
(§3) Specific peptide or protein substrates are trans-phosphorylated by their specific ser-thr or tyr kinase in the presence of ATP traced with ^33P-γ-ATP, and in the presence of their own optimal buffer and cofactors. At the end of the phosphorylation reaction, more than 98% unlabeled ATP and radioactive ATP is captured by an excess of the ion exchange dowex resin; the resin then settles down to the bottom of the reaction plate by gravity. Supernatant is subsequently withdrawn and transferred into a counting plate, then evaluated by β-counting.
(§4) Reaction conditions are target (enzyme) dependent and thus undergo individual adaptations. Also the buffer conditions may vary depending on the kinase of interest. The assay can be used with virtually any kinase and substrate combination and is suitable for all type of protein kinases, such as ABL, ACK1, AKT1, ALK, AUR1, AUR2, BRK, BUB1, CDC7/DBF4, CDK21CYCA, CHK1, CK2, EEF2K, EGFR1, EphA2, EphB4, ERK2, FAK, FGFR1, FLT3, GSK3beta, Haspin, IGFR1, IKK2, IR, JAK1, JAK2, JAK3, KIT, LCK, LYN, MAPKAPK2, MELK, MET, MNK2, MPSI, MST4, NEK6, NIM1, P38alpha, PAK-4, PDGFR, PDK1, PERK, PIM1, PIM2, PKAalpha, PKCbeta, PLK1, RET, ROS1, SULU1, Syk, TLK2, TRKA, TYK, VEGFR2, VEGFR3, ZAP70.

ACK1 = ACK1 (Homo sapiens, UniProt Q07912); conditions: Enzyme ACK1
Experimental: as §1, §2, §3, §4

ABL = ABL (Homo sapiens, UniProt P00519); conditions: Enzyme ABL
Experimental: as §1, §2, §3, §4

BRK = BRK (Homo sapiens, UniProt Q13882); conditions: Enzyme BRK
Experimental: as §1, §2, §3, §4

LCK = LCK (Homo sapiens, UniProt P06239); conditions: Enzyme LCK
Experimental: as §1, §2, §3, §4

ABL, sequence (P00519 whole entry): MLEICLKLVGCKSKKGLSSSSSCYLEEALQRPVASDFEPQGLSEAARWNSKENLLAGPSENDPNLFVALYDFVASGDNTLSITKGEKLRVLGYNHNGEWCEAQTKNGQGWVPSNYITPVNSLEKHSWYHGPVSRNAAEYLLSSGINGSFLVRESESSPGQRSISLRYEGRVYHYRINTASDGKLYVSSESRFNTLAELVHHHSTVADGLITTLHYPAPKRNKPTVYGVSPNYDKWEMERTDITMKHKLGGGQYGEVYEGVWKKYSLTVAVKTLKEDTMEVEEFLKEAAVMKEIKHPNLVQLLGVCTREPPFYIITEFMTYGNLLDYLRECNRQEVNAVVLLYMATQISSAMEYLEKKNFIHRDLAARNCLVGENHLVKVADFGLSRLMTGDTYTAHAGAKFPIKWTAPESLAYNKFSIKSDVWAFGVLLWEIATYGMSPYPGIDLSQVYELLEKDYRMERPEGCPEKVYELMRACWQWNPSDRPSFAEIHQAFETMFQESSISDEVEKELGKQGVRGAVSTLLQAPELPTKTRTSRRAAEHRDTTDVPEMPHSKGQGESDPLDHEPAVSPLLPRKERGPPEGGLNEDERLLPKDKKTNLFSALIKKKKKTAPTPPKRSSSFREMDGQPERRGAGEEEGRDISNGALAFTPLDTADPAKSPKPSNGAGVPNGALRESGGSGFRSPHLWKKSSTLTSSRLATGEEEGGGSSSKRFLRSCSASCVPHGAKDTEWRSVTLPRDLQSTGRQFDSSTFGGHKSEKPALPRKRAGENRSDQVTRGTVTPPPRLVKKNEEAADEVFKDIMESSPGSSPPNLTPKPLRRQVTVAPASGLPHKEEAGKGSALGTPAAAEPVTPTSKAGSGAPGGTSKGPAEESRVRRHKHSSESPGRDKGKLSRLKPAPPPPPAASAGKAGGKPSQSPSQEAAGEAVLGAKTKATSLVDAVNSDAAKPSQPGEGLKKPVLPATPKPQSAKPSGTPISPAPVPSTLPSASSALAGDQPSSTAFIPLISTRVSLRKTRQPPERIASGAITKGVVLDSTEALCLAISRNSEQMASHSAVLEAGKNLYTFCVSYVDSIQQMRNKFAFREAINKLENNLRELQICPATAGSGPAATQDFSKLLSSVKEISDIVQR
LCK, sequence (P06239 whole entry): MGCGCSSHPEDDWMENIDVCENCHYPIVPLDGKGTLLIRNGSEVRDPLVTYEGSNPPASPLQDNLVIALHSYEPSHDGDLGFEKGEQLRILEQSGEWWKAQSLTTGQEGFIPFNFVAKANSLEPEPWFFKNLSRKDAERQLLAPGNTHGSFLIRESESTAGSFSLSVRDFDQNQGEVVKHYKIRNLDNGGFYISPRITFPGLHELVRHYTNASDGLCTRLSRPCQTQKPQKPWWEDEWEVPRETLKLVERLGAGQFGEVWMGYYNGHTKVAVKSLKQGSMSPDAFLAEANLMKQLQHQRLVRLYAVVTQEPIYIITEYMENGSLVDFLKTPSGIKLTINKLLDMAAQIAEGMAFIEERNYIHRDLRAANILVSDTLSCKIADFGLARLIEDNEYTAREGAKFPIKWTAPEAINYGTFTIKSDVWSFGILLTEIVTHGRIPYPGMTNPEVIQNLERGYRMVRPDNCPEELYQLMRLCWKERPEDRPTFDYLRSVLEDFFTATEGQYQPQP
KIT, sequence (P10721 26-976): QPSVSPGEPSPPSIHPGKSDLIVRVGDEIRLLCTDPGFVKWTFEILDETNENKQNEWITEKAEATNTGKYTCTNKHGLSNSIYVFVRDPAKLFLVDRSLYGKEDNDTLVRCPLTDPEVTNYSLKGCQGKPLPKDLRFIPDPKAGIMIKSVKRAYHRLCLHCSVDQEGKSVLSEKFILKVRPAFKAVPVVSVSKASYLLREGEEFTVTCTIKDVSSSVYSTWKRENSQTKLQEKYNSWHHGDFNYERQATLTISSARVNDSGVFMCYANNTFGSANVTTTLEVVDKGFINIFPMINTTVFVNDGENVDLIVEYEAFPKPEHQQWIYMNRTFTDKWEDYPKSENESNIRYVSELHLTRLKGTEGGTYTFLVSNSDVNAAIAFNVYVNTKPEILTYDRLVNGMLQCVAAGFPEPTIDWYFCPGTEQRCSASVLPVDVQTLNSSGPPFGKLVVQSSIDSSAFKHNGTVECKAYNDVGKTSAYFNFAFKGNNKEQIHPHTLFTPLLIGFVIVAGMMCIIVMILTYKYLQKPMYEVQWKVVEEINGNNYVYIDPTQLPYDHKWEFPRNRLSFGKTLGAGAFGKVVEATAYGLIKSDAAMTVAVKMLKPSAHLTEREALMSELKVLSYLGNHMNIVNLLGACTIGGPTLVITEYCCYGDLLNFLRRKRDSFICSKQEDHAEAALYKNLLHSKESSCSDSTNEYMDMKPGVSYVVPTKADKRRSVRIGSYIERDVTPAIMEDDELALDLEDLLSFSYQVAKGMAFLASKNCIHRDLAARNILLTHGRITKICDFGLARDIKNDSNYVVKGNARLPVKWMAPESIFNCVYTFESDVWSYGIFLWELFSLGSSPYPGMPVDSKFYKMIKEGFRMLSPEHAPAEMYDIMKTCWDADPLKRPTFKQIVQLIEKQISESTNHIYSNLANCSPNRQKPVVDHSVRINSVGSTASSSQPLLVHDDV
BRK, sequence (Q13882 whole entry): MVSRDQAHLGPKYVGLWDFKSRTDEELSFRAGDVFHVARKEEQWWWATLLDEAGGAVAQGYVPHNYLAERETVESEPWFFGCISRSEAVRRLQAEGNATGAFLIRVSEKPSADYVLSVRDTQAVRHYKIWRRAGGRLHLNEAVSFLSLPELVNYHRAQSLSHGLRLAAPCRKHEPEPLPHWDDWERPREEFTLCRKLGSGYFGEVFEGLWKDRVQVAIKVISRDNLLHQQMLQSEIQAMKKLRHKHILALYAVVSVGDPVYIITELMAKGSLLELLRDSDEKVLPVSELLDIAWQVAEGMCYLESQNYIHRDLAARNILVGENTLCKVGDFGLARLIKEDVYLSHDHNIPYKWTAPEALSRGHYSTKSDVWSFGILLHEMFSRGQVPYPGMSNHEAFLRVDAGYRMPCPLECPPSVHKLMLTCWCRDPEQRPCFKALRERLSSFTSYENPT
ACK1, sequence (Q07912 whole entry): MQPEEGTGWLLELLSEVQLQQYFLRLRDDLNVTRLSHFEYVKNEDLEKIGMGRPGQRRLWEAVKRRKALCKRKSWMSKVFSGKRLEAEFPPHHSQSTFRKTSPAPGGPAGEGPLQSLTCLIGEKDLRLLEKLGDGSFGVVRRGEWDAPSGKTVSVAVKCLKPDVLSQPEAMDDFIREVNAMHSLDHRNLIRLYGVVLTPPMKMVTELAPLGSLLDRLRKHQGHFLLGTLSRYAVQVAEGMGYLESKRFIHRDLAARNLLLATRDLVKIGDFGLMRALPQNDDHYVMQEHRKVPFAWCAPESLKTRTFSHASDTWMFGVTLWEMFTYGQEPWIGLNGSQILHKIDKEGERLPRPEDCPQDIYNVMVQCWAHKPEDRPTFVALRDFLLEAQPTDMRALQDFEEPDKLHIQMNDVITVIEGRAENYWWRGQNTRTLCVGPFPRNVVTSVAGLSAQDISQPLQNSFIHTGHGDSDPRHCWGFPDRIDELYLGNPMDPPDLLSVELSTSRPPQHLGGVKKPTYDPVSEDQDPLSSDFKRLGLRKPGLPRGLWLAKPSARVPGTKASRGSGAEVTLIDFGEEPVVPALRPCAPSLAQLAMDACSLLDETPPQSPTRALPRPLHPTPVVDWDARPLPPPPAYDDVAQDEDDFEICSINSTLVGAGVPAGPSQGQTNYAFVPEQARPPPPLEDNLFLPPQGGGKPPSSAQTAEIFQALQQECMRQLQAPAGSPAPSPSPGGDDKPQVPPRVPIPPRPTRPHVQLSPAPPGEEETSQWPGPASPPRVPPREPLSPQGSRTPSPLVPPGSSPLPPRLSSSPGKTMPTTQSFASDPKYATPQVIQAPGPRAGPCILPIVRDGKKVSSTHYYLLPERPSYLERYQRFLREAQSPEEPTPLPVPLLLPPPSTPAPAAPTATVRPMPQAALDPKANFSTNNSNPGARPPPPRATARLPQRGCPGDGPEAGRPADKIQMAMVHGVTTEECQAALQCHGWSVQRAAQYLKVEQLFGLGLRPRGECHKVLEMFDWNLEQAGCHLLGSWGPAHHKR

| SMILES | IC50 (ACK1) | further results |
| --- | --- | --- |
| O=C(NCCc1ccc(Cl)cc1)c1cc2n(c1)CCc1c(NC(=O)c3ccco3)n[nH]c1-2 [Example A9-M1-B13] |  | IC50 (KIT): 5850 nM |
| O=C(Nc1n[nH]c2c1CCn1cc(C(=O)N3CCSCC3)cc1-2)c1ccccc1Cl [Example A5-M1-B38] | 2160 nM |  |
| Cc1cc(C)c(C(=O)Nc2n[nH]c3c2CCn2cc(C(=O)N4CCCC4)cc2-3)c(C)c1 [Example A39-M1-B8] | 750 nM |  |
| O=C(Nc1n[nH]c2c1CCn1cc(C(=O)N3CCCC3)cc1-2)c1ccccc1Cl [Example A5-M1-B8] | 630 nM and 480 nM | IC50 (ABL): 1860 nM and 2230 nM; IC50 (KIT): 5980 nM |
| O=C(NCc1ccccn1)c1cc2n(c1)CCc1c(NC(=O)c3ccccc3Cl)n[nH]c1-2 [Example A5-M1-B26] | 3040 nM |  |
| O=C(NCC1CC1)c1cc2n(c1)CCCc1c(NC(=O)c3ccccc3Cl)n[nH]c1-2 [Example A5-M2-B41] | 440 nM and 240 nM |  |
| O=C(Nc1n[nH]c2c1CCn1cc(C(=O)N3CCCCC3)cc1-2)c1ccccc1Cl [Example A5-M1-B42] | 440 nM | IC50 (ABL): 1790 nM; IC50 (KIT): 6610 nM; IC50 (BRK): 3640 nM |
| CC(C)CNC(=O)c1cc2n(c1)CCc1c(NC(=O)c3ccccc3Cl)n[nH]c1-2 [Example A5-M1-B39] | 1940 nM |  |
| C=CCNC(=O)c1cc2n(c1)CCc1c(NC(=O)c3ccccc3Cl)n[nH]c1-2 [Example A5-M1-B36] | 4120 nM |  |
| O=C(NCCN1CCCCC1)c1cc2n(c1)CCc1c(NC(=O)c3ccccc3Cl)n[nH]c1-2 [Example A5-M1-B31] | 3160 nM |  |
| O=C(NCCN1CCCCC1)c1cc2n(c1)CCCc1c(NC(=O)c3ccccc3Cl)n[nH]c1-2 [Example A5-M2-B31] | 3510 nM |  |
| CCN(CC)C(=O)c1cc2n(c1)CCc1c(NC(=O)c3ccccc3C)n[nH]c1-2 [Example A21-M1-B17] | 1410 nM |  |
| C=CCNC(=O)c1cc2n(c1)CCc1c(NC(=O)c3ccccc3C)n[nH]c1-2 [Example A21-M1-B36] | 3340 nM | IC50 (ABL): 3230 nM; IC50 (KIT): 5030 nM; IC50 (LCK): 5140 nM |
| Cc1ccc(C(=O)Nc2n[nH]c3c2CCn2cc(C(=O)NC4CC4)cc2-3)c(C)c1 [Example A35-M1-B30] | 6560 nM |  |
| O=C(NCc1ccccn1)c1cc2n(c1)CCCc1c(NC(=O)c3ccccc3Cl)n[nH]c1-2 [Example A5-M2-B26] | 4840 nM |  |
| CCCN1CCN(C(=O)c2cc3n(c2)CCc2c(NC(=O)c4ccccc4Cl)n[nH]c2-3)CC1 [Example A5-M1-B32] | 1380 nM |  |
| CN1CCN(c2ccc(C(=O)Nc3n[nH]c4c3CCn3cc(C(=O)N(C)C)cc3-4)cc2)CC1 [Example A16-M1-B19] |  | IC50 (KIT): 4470 nM |
| Cc1ccccc1C(=O)Nc1n[nH]c2c1CCn1cc(C(=O)N3CCC(N4CCCCC4)CC3)cc1-2 [Example A21-M1-B34] | 890 nM | IC50 (ABL): 5340 nM; IC50 (BRK): 5060 nM |
| Cc1ccc(C(=O)Nc2n[nH]c3c2CCn2cc(C(=O)NC(C)C)cc2-3)c(C)c1 [Example A35-M1-B10] | 3130 nM |  |
| Cc1ccccc1C(=O)Nc1n[nH]c2c1CCCn1cc(C(=O)NCC3CC3)cc1-2 [Example A21-M2-B41] | 1560 nM |  |
| CC(C)NC(=O)c1cc2n(c1)CCc1c(NC(=O)c3ccccc3Cl)n[nH]c1-2 [Example A5-M1-B10] | 3250 nM |  |
| C=CCNC(=O)c1cc2n(c1)CCCc1c(NC(=O)c3ccc(C)cc3C)n[nH]c1-2 [Example A35-M2-B36] | 3980 nM |  |
| O=C(NC1CCCC1)c1cc2n(c1)CCc1c(NC(=O)c3ccccc3Cl)n[nH]c1-2 [Example A5-M1-B28] | 4330 nM |  |
| Cc1ccc(C(=O)Nc2n[nH]c3c2CCn2cc(C(=O)NCC4CC4)cc2-3)c(C)c1 [Example A35-M1-B41] | 2870 nM |  |
| CCCN1CCN(C(=O)c2cc3n(c2)CCc2c(NC(=O)c4ccc(C)cc4C)n[nH]c2-3)CC1 [Example A35-M1-B32] | 1210 nM |  |
| O=C(NC1CC1)c1cc2n(c1)CCc1c(NC(=O)c3ccccc3Cl)n[nH]c1-2 [Example A5-M1-B30] | 4710 nM |  |
| O=C(NCc1cccs1)c1cc2n(c1)CCc1c(NC(=O)c3ccc4c(c3)OCO4)n[nH]c1-2 [Example A11-M1-B16] |  | IC50 (KIT): 2660 nM |

| SMILES | IC50 (ACK1) | further results |
| --- | --- | --- |
| Cc1ccccc1C(=O)Nc1n[nH]c2c1CCn1cc(C(=O)NCC3CC3)cc1-2 [Example A21-M1-B41] | 2450 nM |  |
| O=C(NCC1CC1)c1cc2n(c1)CCc1c(NC(=O)c3ccccc3Cl)n[nH]c1-2 [Example A5-M1-B41] | 960 nM | IC50 (ABL): 400 nM; IC50 (KIT): 1830 nM; IC50 (LCK): 1150 nM; IC50 (BRK): 4350 nM |
| Cc1ccccc1C(=O)Nc1n[nH]c2c1CCn1cc(C(=O)N3CCSCC3)cc1-2 [Example A21-M1-B38] | 2040 nM | IC50 (BRK): 6300 nM |
| Cc1ccc(C(=O)Nc2n[nH]c3c2CCn2cc(C(=O)N4CCOCC4)cc2-3)c(C)c1 [Example A35-M1-B7] | 5910 nM |  |
| COCCNC(=O)c1cc2n(c1)CCCc1c(NC(=O)c3ccc(C)cc3C)n[nH]c1-2 [Example A35-M2-B33] | 3820 nM |  |
| CCCN1CCN(C(=O)c2cc3n(c2)CCc2c(NC(=O)c4ccccc4F)n[nH]c2-3)CC1 [Example A20-M1-B32] | 3060 nM |  |
| CC(C)CNC(=O)c1cc2n(c1)CCCc1c(NC(=O)C(C)C)n[nH]c1-2 [Example A27-M2-B39] | 3170 nM |  |
| O=C(NCc1cccs1)c1cc2n(c1)CCc1c(NC(=O)c3ccco3)n[nH]c1-2 [Example A9-M1-B16] |  | IC50 (KIT): 850 nM |
| Cc1ccc(C(=O)Nc2n[nH]c3c2CCCn2cc(C(=O)NCC(C)C)cc2-3)c(C)c1 [Example A35-M2-B39] | 1410 nM |  |
| CC(C)CNC(=O)c1cc2n(c1)CCCc1c(NC(=O)c3ccccc3Cl)n[nH]c1-2 [Example A5-M2-B39] | 550 nM |  |
| CCN(CC)C(=O)c1cc2n(c1)CCc1c(NC(=O)c3ccccc3Cl)n[nH]c1-2 [Example A5-M1-B17] | 2160 nM |  |
| O=C(NCc1ccncc1)c1cc2n(c1)CCc1c(NC(=O)c3ccccc3Cl)n[nH]c1-2 [Example A5-M1-B25] | 1920 nM |  |
| C=CCNC(=O)c1cc2n(c1)CCCc1c(NC(=O)c3ccccc3Cl)n[nH]c1-2 [Example A5-M2-B36] | 740 nM |  |
| Cc1ccc(C(=O)Nc2n[nH]c3c2CCn2cc(C(=O)NCC(C)C)cc2-3)c(C)c1 [Example A35-M1-B39] | 2850 nM |  |
| O=C(Nc1n[nH]c2c1CCn1cc(C(=O)N3CCCC3)cc1-2)c1ccccc1F [Example A20-M1-B8] | 1040 nM | IC50 (ABL): 2430 nM; IC50 (KIT): 2020 nM |
| CCC(C)NC(=O)c1cc2n(c1)CCc1c(NC(=O)c3ccccc3Cl)n[nH]c1-2 (centres unmarked) [Example A5-M1-B27] | 2400 nM |  |
| O=C(NCC1CC1)c1cc2n(c1)CCCc1c(NC(=O)c3c(Cl)cccc3Cl)n[nH]c1-2 [Example A38-M2-B41] | 2820 nM |  |
| CCN1CCN(C(=O)c2cc3n(c2)CCc2c(NC(=O)c4ccccc4Cl)n[nH]c2-3)CC1 [Example A5-M1-B37] | 1000 nM | IC50 (ABL): 5100 nM; IC50 (BRK): 5770 nM |
| COCCNC(=O)c1cc2n(c1)CCCc1c(NC(=O)c3ccccc3Cl)n[nH]c1-2 [Example A5-M2-B33] | 2470 nM |  |
| Cc1cc(C)c(C(=O)Nc2n[nH]c3c2CCn2cc(C(=O)N4CCC(N5CCCCC5)CC4)cc2-3)c(C)c1 [Example A39-M1-B34] | 5540 nM |  |
| Cc1ccc(C(=O)Nc2n[nH]c3c2CCn2cc(C(=O)N4CCCCC4)cc2-3)c(C)c1 [Example A35-M1-B42] | 2200 nM |  |
| O=C(Nc1n[nH]c2c1CCn1cc(C(=O)N3CCOCC3)cc1-2)c1ccccc1Cl [Example A5-M1-B7] | 1430 nM |  |
| COc1ccccc1C(=O)Nc1n[nH]c2c1CCn1cc(C(=O)N3CCCC3)cc1-2 [Example A6-M1-B8] | 1890 nM |  |
| O=C(NCC1CC1)c1cc2n(c1)CCc1c(NC(=O)c3c(Cl)cccc3Cl)n[nH]c1-2 [Example A38-M1-B41] |  | IC50 (LCK): 4130 nM |
| Cc1ccccc1C(=O)Nc1n[nH]c2c1CCn1cc(C(=O)N3CCCC3)cc1-2 [Example A21-M1-B8] | 630 nM | IC50 (ABL): 4940 nM |
| CC(C)N1CCN(C(=O)c2cc3n(c2)CCc2c(NC(=O)c4ccccc4Cl)n[nH]c2-3)CC1 [Example A5-M1-B40] | 1730 nM |  |
| O=C(NCc1cccs1)c1cc2n(c1)CCc1c(NC(=O)c3cccc(F)c3)n[nH]c1-2 [Example A8-M1-B16] |  | IC50 (KIT): 2680 nM |
